# Assay results taken from patent US20090004185A1, “AMINO-SUBSTITUTED QUINAZOLINE DERIVATIVES AS INHIBITORS OF BETA-CATENIN/TCF-4 PATHWAY AND CANCER TREATMENT AGENTS” (WYETH, priority 2007, published 2009).
# Columns and labels:
# SV40-Luc = SV40-Luc control luciferase reporter assay, SV 5A8 cell line (SV40-Luc and SV40-R-Luc), control for non-specific inhibitors; assay type: cell-based, human; conditions: SV 5A8 cells derived from SW480, 24 hours of incubation with compound, ratio Firefly/Renilla luciferase
# Outline: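 Compound exposure lasted 24 h, starting 20-24 h after seeding 1×10^4 cells/well, with titrated doses and 0.316% final DMSO. Readout was dual firefly/Renilla luminescence; Renilla under an SV40 promoter corrects for cell number and toxicity, and SV 5A8 (SV40 firefly) flags non-specific inhibitors versus Tcf-4-driven lines 33.13 and 22C11. IC50s came from the F/R ratio (% of control).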
# β-catenin/Tcf-4 = assay: cells; assay type: cell-based; conditions: 24 hours of incubation with compound, ratio Firefly/Renilla luciferase
# Outline: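 SW480-derived lines with integrated reporters (Tcf-4-driven firefly luciferase; SV40 firefly as specificity control; SV40 Renilla for cell number/toxicity), treated 24 hours with titrated compounds, final 0.316% DMSO. Dual-luciferase read-out; firefly/Renilla ratio as % of control, duplicate plates, IC50 (nM) from curve fit.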
# [1] = Homo sapiens, SW480, 24 h, Tcf 33.13 cells derived from SW480
# [2] = Homo sapiens, Tcf22C11, 24 h, Tcf 22C11 cells derived from SW480
SMILES,"IC50 (SV40-Luc; Homo sapiens, SV5A8, 24 h) [nM]",IC50 (β-catenin/Tcf-4; [1]) [nM],IC50 (β-catenin/Tcf-4; [2]) [nM],IC50 (SV40-Luc) [nM],IC50 (β-catenin/Tcf-4; Tcf 22C11 cells derived from SW480) [nM],IC50 (β-catenin/Tcf-4; Tcf 33.13 cells derived from SW480) [nM]
"CNc1nc(NCc2ccc(NC(=O)c3ccc(Cl)cc3F)cc2)c2ccccc2n1 [Example 14, 4-chloro-2-fluoro-N-[4-({[2-(methylamino)quinazolin-4-yl]amino}methyl)phenyl]benzamide]",> 2870,1290,891,,,
"Cc1ccc2c(NCc3ccc(NC(=O)c4ccc(Cl)nc4)cc3)nc(N(C)C)nc2c1 [Example 242, 6-chloro-N-[4-({[2-(dimethylamino)-7-methylquinazolin-4-yl]amino}methyl)phenyl]nicotinamide]",> 5590,336,318,,,
"Cc1ccc2c(NCc3ccc(NC(=O)c4ccc(F)cc4)cc3)nc(NCCCN3CCN(C)CC3)nc2c1 [Example 229, 4-fluoro-N-(4-{[(7-methyl-2-{[3-(4-methylpiperazin-1-yl)propyl]amino}quinazolin-4-yl)amino]methyl}phenyl)benzamide]",> 4620,2320,2190,,,
"CCCC/C=C/c1ccc2c(NCc3ccc(NC(=O)c4ccc(F)cc4)cc3)nc(N(C)C)nc2c1 [Example 103, N-{4-[({2-(dimethylamino)-7-[(1E)-hex-1-en-1-yl]quinazolin-4-yl}amino)methyl]phenyl}-4-fluorobenzamide]",> 4680,429,615,,,
"Cc1ccc2nc(N(C)C)nc(NCc3ccc(NC(=O)c4ccc(F)c(F)c4)cc3)c2c1 [Example 36, N-[4-({[2-(dimethylamino)-6-methylquinazolin-4-yl]amino}methyl)phenyl]-3,4-difluorobenzamide]",> 5590,866,1170,,,
"Cc1ccc2c(N[C@@H](C)c3ccc(NC(=O)c4ccc(Cl)nc4)cc3)nc(N(C)C)nc2c1 [Example 269, (S)-6-chloro-N-(4-(1-(2-(dimethylamino)-7-methylquinazolin-4-ylamino)ethyl)phenyl)nicotinamide]",> 11300,319,439,,,
"COC(=O)c1ccc2nc(N(C)C)nc(NCc3ccc(NC(=O)c4ccc(F)cc4)cc3)c2c1 [Example 70, methyl 2-(dimethylamino)-4-({4-[(4-fluorobenzoyl)amino]benzyl}amino)quinazoline-6-carboxylate]",> 10600,1480,2140,,,
"Cc1ccc2c(NCc3ccc(NC(=O)C4CCN(C)CC4)cc3)nc(N(C)C)nc2c1 [Example 243, N-[4-({[2-(dimethylamino)-7-methylquinazolin-4-yl]amino}methyl)phenyl]-1-methylpiperidine-4-carboxamide]",> 23100,1680,1920,,,
"Cc1ccc2c(NCc3ccc(NC(=O)c4ccc(C)nc4)cc3)nc(N(C)C)nc2c1 [Example 241, N-[4-({[2-(dimethylamino)-7-methylquinazolin-4-yl]amino}methyl)phenyl]-6-methylnicotinamide]",> 23400,813,1030,,,
CN(C)c1ccc(-c2ccc3nc(N(C)C)nc(NCc4ccc(NC(=O)c5ccc(F)cc5)cc4)c3c2)nc1 [Example 169],,,,> 2330,229,453

# Now from value to molecule:
"IC50 (SV40-Luc; Homo sapiens, SV5A8, 24 h) [nM]",IC50 (β-catenin/Tcf-4; [1]) [nM],IC50 (β-catenin/Tcf-4; [2]) [nM],IC50 (SV40-Luc) [nM],IC50 (β-catenin/Tcf-4; Tcf 22C11 cells derived from SW480) [nM],IC50 (β-catenin/Tcf-4; Tcf 33.13 cells derived from SW480) [nM],SMILES
> 18600,1420,1460,,,,"Cc1ccc2c(NCc3ccc(NC(=O)C4CCN(Cc5ccccc5)CC4)cc3)nc(N(C)CCO)nc2c1 [Example 139, 1-benzyl-N-{4-[({2-[(2-hydroxyethyl)(methyl)amino]-7-methylquinazolin-4-yl}amino)methyl]phenyl}piperidine-4-carboxamide]"
> 8870,1470,1930,,,,"Cc1ccc2c(NCc3ccc(NC(=O)C4CCN(Cc5ccccc5)CC4)cc3)nc(N3CCN[C@H](C)C3)nc2c1 [Example 143, 1-benzyl-N-{4-[({7-methyl-2-[(3R)-3-methylpiperazin-1-yl]quinazolin-4-yl}amino)methyl]phenyl}piperidine-4-carboxamide]"
> 8340,215,262,,,,"Cc1ccc2c(NCc3ccc(NC(=O)C4CCN(Cc5ccc(F)cc5)CC4)cc3)nc(N(C)C)nc2c1 [Example 251, N-[4-({[2-(dimethylamino)-7-methylquinazolin-4-yl]amino}methyl)phenyl]-1-(4-fluorobenzyl)piperidine-4-carboxamide]"
> 5200,1250,1570,,,,"CNc1nc(NCc2ccc(NC(=O)C3CCN(Cc4ccccc4)CC3)cc2)c2ccccc2n1 [Example 147, 1-benzyl-N-[4-({[2-(methylamino)quinazolin-4-yl]amino}methyl)phenyl]piperidine-4-carboxamide]"
> 7140,> 3570,> 7140,,,,"O=C(Nc1ccc(CNc2nc(N3CCN(c4ncccn4)CC3)nc3ccc(C(F)(F)F)cc23)cc1)C1CCN(Cc2ccc(F)cc2)CC1 [Example 157, 1-(4-fluorobenzyl)-N-[4-({[2-(4-pyrimidin-2-ylpiperazin-1-yl)-6-(trifluoromethyl)quinazolin-4-yl]amino}methyl)phenyl]piperidine-4-carboxamide]"
> 4640,2210,1900,,,,"Cc1ccc2c(NCc3ccc(NC(=O)c4ccc(F)cc4)cc3)nc(N3CCC[C@H]3CN3CCCC3)nc2c1 [Example 228, 4-fluoro-N-{4-[({7-methyl-2-[(2S)-2-(pyrrolidin-1-ylmethyl)pyrrolidin-1-yl]quinazolin-4-yl}amino)methyl]phenyl}benzamide]"
> 18300,3260,8650,,,,"Cc1ccc2nc(N3CCN(c4ccccn4)CC3)nc(NCc3ccc(NC(=O)c4ccc(F)cc4)cc3)c2c1 [Example 55, 4-fluoro-N-[4-({[6-methyl-2-(4-pyridin-2-ylpiperazin-1-yl)quinazolin-4-yl]amino}methyl)phenyl]benzamide]"
> 7890,215,521,,,,"Cc1ccc2c(NCc3ccc(NC(=O)C4CCN(Cc5ccc(F)cc5Cl)CC4)cc3)nc(N(C)C)nc2c1 [Example 258, 1-(2-chloro-4-fluorobenzyl)-N-[4-({[2-(dimethylamino)-7-methylquinazolin-4-yl]amino}methyl)phenyl]piperidine-4-carboxamide]"
> 7960,891,872,,,,"Cc1ccc2nc(N3CCN(c4ncccn4)CC3)nc(NCc3ccc(NC(=O)C4CCN(Cc5ccccc5)CC4)cc3)c2c1 [Example 82, 1-benzyl-N-[4-({[6-methyl-2-(4-pyrimidin-2-ylpiperazin-1-yl)quinazolin-4-yl]amino}methyl)phenyl]piperidine-4-carboxamide]"
> 15600,2660,4460,,,,"CC(=O)N1CCCN(c2nc(NCc3ccc(NC(=O)c4ccc(F)cc4)cc3)c3ccc(C)cc3n2)CC1 [Example 223, N-[4-({[2-(4-acetyl-1,4-diazepan-1-yl)-7-methylquinazolin-4-yl]amino}methyl)phenyl]-4-fluorobenzamide]"
> 8240,> 8240,> 8240,,,,"O=C(Nc1ccc(CNc2nc(NC3CCC3)nc3ccc(C(F)(F)F)cc23)cc1)C1CCN(Cc2ccc(F)cc2)CC1 [Example 159, N-[4-({[2-(cyclobutylamino)-6-(trifluoromethyl)quinazolin-4-yl]amino}methyl)phenyl]-1-(4-fluorobenzyl)piperidine-4-carboxamide]"
